≈ marks a conversion by molar mass, not a printed value. Non-standard residues stand in square brackets, D forms with d. Residues, ends and D or L forms follow the SMILES beside them.
Assays:
aspergillus flavous = test: microbe, parasite or virus in culture; assay type: cell-based
Description: (§1) • (1) Test strains: monilia albicans (candida albicans), candida glabrata, candida krusei, candida tropicalis, aspergillus fumigatus and flavous. Antimicrobial peptides PL-13 (SEQ ID NO: 1) under test are supplied by Jiangsu ProteLight Pharmaceutical & Biotechnology Co., LTD. […] Activation of bacterial strains is conducted at a humidity level of 60% and 25° C. (for aspergillus) or 37° C. (for candida). (2) 0.9% stroke-physiological saline solution comprising 0.5% Tween-80 is used to prepare bacterial suspension for experiment. Hemocytometer is utilized to adjust concentration of the bacterial suspension to 1-3×10^6 CFU/ml (0.5 McFarland units) to make stock solution in reserve at -20° C. During the sensitivity test, the RPMI-1640 liquid medium is diluted 1000 times to 1-3×10^3 CFU/ml. (3) The RPMI-1640 liquid is utilized as diluent to 10-fold dilute stock solution of peptides. […] The eleventh orifice is used as living control orifice, while the twelfth one as blank control. (4) The RPMI-1640 liquid is utilized as diluent to 10-fold dilute stock solution of FCZ and ICZ. […] Ditto for other operations.

[1] = Circular dichroism (CD) spectroscopy, helical structure; assay type: physicochemical; conditions: for 50% TFE % helix / Benign buffer % helix: relative to ellipticity (100%) of reference peptide in 50% TFE
Description: The mean residue molar ellipticities of peptides are determined by circular dichroism (CD) spectroscopy, using a Jasco J-720 spectropolarimeter (Jasco, Easton, Md.), at 25° C. under benign conditions (50 mM KH2PO4/K2HPO4/100 mM KCl, pH7), as well as in the presence of an α-helix inducing solvent, 2,2,2-trifluoroethanol (TFE) (50 mM KH2PO4/K2HPO4/100 mM KCL, pH 7 buffer/50% TFE). A 10-fold dilution of a 500 μM stock solution of the peptide is loaded into a 0.02 cm fused silica cell and its mean residue molar ellipticity scanned from 190 to 250 nm. The values of mean residue molar ellipticities of the peptide at a wavelength of 222 nm are used to estimate the relative amount of α-helicity of the peptides.
To determine the secondary structure of peptides in different environments, circular dichroism (CD) spectra of the peptide analogs are measured under physiologically related pH and ionic strength (100 mM KCl, 50 mM aq. PO4, pH 7 referred to as benign conditions) and also in 50% TFE to mimic the hydrophobic environment of the membrane. CD spectra of the peptide analogs are measured under benign conditions (100 mM KCl, 50 mM KH2PO4/K2HPO4, pH 7, referred to as KP buffer) and also in 50% trifluoroethanol (TFE) to mimic the hydrophobic environment of the membrane. […] However, in the presence of 50% TFE, all three L-peptides are fully folded α-helical structures with similar molar ellipticities and helicity.
FIG. 2 illustrates graphical results of Circular dichroism (CD) spectra of peptides at pH 7.4 and 25° C., in 50 mM aq. PO4 containing 100 mM KCl, wherein KP buffer (50 mM KH2PO4, K2HPO4, 100 mM KCl, pH 7.4) mimics hydrophilic environment and KP buffer-TFE (1:1 [vol/vol]) mimics hydrophobic environment of cell membrane. The figure above represents the CD spectra of peptides in benign buffer without TFE, whilst the figure below represents CD spectra obtained in the presence of 50% TFE.

[2] = RP-HPLC temperature profiling: hydrophobicity and self-association; assay type: physicochemical; conditions: for tR(min) 5° C. / tR(min) 80° C.: RP-HPLC temperature profiling; for PA (min), association parameter: maximal normalized retention time difference within 5-80° C., self-association ability; for tR(min) Max: maximal retention time during temperature profiling 5-80° C.; for ΔtR(X-Peptide C)(min) 5° C.: retention time difference to control peptide C at 5° C.; for ΔtR(X-Peptide C)(min) 5° C. / ΔtR(X-Peptide C)(min) 80° C.: relative hydrophobicity; for ΔtR(X-Peptide C)(min) 80° C.: retention time difference to control peptide C at 80° C.; for Hydrophobicity tR5: retention time in RP-HPLC at pH 2, 5° C.; for Hydrophobicity tR80: retention time in RP-HPLC at pH 2, 80° C.
Description: Peptides are analyzed on an Agilent 1200 series liquid chromatograph (Little Falls, Del.). Runs are performed on a Zorbax 300 SB-C8 column (150×4.6 mm I.D.; 5 μm particle size, 300 Å pore size) from Agilent Technologies using linear AB gradient (1% acetonitrile/min) and a flow rate of 1 ml/min, where solvent A is 0.05% aqueous TFA, pH 2 and solvent B is 0.05% TFA in acetonitrile.
We further use temperature profiling during RP-HPLC to determine the self-association ability of various analogs of PL-13 (SEQ ID NO: 1) which would occur through interaction of the non-polar faces of these amphipathic peptides α-helices. We use 50% TFE aqueous acetonitrile and hydrophobic conditions in the reversed-phase column (hydrophobic stationary phase and the hydrophobic organic solvent in the mobile phase) since the hydrophobic environment of a reversed-phase column also could induce α-helical structure. Since its introduction, the technique of RP-HPLC temperature profiling has been applied on several types of molecules, including cyclic β-sheet peptides, monomeric α-helices and α-helices that dimerize, as well as α-helices that dimerize to form coiled-coils. Although peptides are eluted from a reversed-phase column mainly by an adsorption/desorption mechanism, even a peptide strongly bound to a hydrophobic stationary phase will partition between the matrix and the mobile phase when the acetonitrile content becomes high enough during gradient elution. In summary, the mechanism is based on four assumptions: (i) at low temperature, just as an amphipathic α-helical peptide is able to dimerize in aqueous solution (through its hydrophobic, non-polar face), it will dimerize in solution during partitioning in reversed-phase chromatography; (ii) at higher temperatures, the monomer-dimer equilibrium favors the monomer as the dimer is disrupted; (iii) at sufficiently high temperatures, only monomer is present in solution; and (iv) peptide is always bound in its monomeric helical form to the hydrophobic stationary phase, i.e., the dimer can only be present in solution and disruption of the dimer is required for rebinding to the RP-HPLC matrix.
([θ]222=−3,950). Since peptide C is a monomeric random coil peptide in both aqueous and hydrophobic media, its retention behavior over the temperature range 5-80° C. represents only general temperature effects on peptide retention behavior, i.e., a linear decrease in peptide retention time with increasing temperature due to greater solute diffusivity and enhanced mass transfer between the stationary and mobile phases at higher temperatures. Thus, after normalization to the retention times of peptide C, the retention behavior of the peptides only represents peptide self-association ability. Note that the higher the PA value, the greater the self-association ability. The order of peptide self-association ability of the three pairs of peptide enantiomers is identical to the order of peptide hydrophobicity. Apart from the decrease in retention time due to the general temperature effects noted above, destruction of the α-helix will also occur with increasing temperature, resulting in reduced retention times as the peptides become increasingly random coils.
The retention time data for the peptides is shown in Table 6 which records retention times at 5° C., the maximal retention times and retention times at 80° C. during the temperature profiling. Temperatures of 5-80° C. are the lower and upper temperature limits of temperature profiling in RP-HPLC, representing polymerization of the peptides at 5° C. and the monomerization of peptides at 80° C. due to denaturation of peptides by high temperature and dissociation of the polymers. The maximal retention times represent the threshold points at which peptides totally transform from polymeric to monomeric form. […]

candida albicans = test: microbe, parasite or virus in culture; assay type: cell-based
Description: as §1

aspergillus fumigatus = test: microbe, parasite or virus in culture; assay type: cell-based
Description: as §1

candida glabrata = test: microbe, parasite or virus in culture; assay type: cell-based
Description: as §1

candida tropicalis = test: microbe, parasite or virus in culture; assay type: cell-based
Description: as §1

Work on `CC(=O)N[C@H](Cc1ccccc1)C(=O)N[C@H](CCCCN)C(=O)N[C@H](CCCCN)C(=O)N[C@H](CC(C)C)C(=O)N[C@H](CCCCN)C(=O)N[C@H](CCCCN)C(=O)N[C@H](CC(C)C)C(=O)N[C@H](Cc1ccccc1)C(=O)N[C@H](CO)C(=O)N[C@H](CCCCN)C(=O)N[C@H](CC(C)C)C(=O)N[C@H](CC(C)C)C(=O)N[C@H](CC(N)=O)C(=O)N[C@H](CC(C)C)C(=O)N[C@H](CCCCN)C(N)=O` [PL-37] (Ac-[dF][dK][dK][dL][dK][dK][dL][dF][dS][dK][dL][dL][dN][dL][dK]-NH2) yielded a Minimal inhibitory concentration (aspergillus flavous) greater than 64 µg/mL.
With `CC(=O)N[C@H](CCCCN)C(=O)N[C@H](CC(C)C)C(=O)N[C@H](CCCCN)C(=O)N[C@H](CCCCN)C(=O)N[C@H](CC(C)C)C(=O)N[C@H](Cc1ccccc1)C(=O)N[C@H](CO)C(=O)N[C@H](CCCCN)C(=O)N[C@H](CC(C)C)C(=O)N[C@H](Cc1c[nH]c2ccccc12)C(=O)N[C@H](CC(N)=O)C(=O)N[C@H](Cc1c[nH]c2ccccc12)C(=O)N[C@H](CCCCN)C(N)=O` [PL-40] (Ac-[dK][dL][dK][dK][dL][dF][dS][dK][dL][dW][dN][dW][dK]-NH2; N-terminus and C-terminus assumed) the “50% TFE % helix” value [1] was 70.7%, the “Benign buffer % helix” value [1] was 6.0% and the “tR(min) 5° C.” value [2] was 33.16 min. For the same compound, the “tR(min) 80° C.” value [2] was 30.94 min, the “PA (min), association parameter” value [2] was 0.55 min and the “tR(min) Max” value [2] was 33.16 min. The “ΔtR(X-Peptide C)(min) 5° C.” value [2] was 10.60 min, the “ΔtR(X-Peptide C)(min) 80° C.” value [2] was 11.01 min and the “Hydrophobicity tR5” value [2] was 33.16 min. The “Hydrophobicity tR80” value [2] was 30.94 min, the Minimal inhibitory concentration (aspergillus flavous) was greater than 64 µg/mL and the Minimal inhibitory concentration (candida albicans) was 16 µg/mL (≈ 9.09 µM).
In the case of `CC(=O)N[C@H](CC(C)C)C(=O)N[C@H](Cc1ccccc1)C(=O)N[C@H](CCCCN)C(=O)N[C@H](CCCCN)C(=O)N[C@H](CC(C)C)C(=O)N[C@H](CCCCN)C(=O)N[C@H](CCCCN)C(=O)N[C@H](CC(C)C)C(=O)N[C@H](Cc1ccccc1)C(=O)N[C@H](CO)C(=O)N[C@H](CCCCN)C(=O)N[C@H](CC(C)C)C(=O)N[C@H](Cc1c[nH]c2ccccc12)C(=O)N[C@H](CC(N)=O)C(=O)N[C@H](Cc1c[nH]c2ccccc12)C(=O)N[C@H](CCCCN)C(N)=O` [PL-51] (Ac-[dL][dF][dK][dK][dL][dK][dK][dL][dF][dS][dK][dL][dW][dN][dW][dK]-NH2; N-terminus and C-terminus assumed), the “50% TFE % helix” value [1] is reported as 100.0%, the “Benign buffer % helix” value [1] is reported as 16.8% and the “50% TFE [θ]222” value ([1]; mean residue molar ellipticity at 222 nm, 25° C., buffer containing 50% TFE) is reported as 28200 deg · cm^2 · dmol^−1. The “tR(min) 5° C.” value [2] was 42.59 min, the “tR(min) 80° C.” value [2] was 41.35 min and the “PA (min), association parameter” value [2] was 1.63 min. For the same compound, the “tR(min) Max” value [2] was 42.96 min, the “ΔtR(X-Peptide C)(min) 5° C.” value [2] was 20.02 min and the “ΔtR(X-Peptide C)(min) 80° C.” value [2] was 21.42 min. The “Hydrophobicity tR5” value [2] was 42.59 min, the “Hydrophobicity tR80” value [2] was 41.35 min and the Minimal inhibitory concentration (aspergillus flavous) was greater than 64 µg/mL.
For “Ac-FKKFKKLLSKLWNWK-NH2 (N-terminus and C-terminus assumed) [PL-32]”, the Minimal inhibitory concentration (aspergillus flavous) was greater than 64 µg/mL, the Minimal inhibitory concentration (aspergillus fumigatus) was 64 µg/mL and the Minimal inhibitory concentration (candida glabrata) was 32 µg/mL.
For “Ac-FKKLKKKFSKLWNWK-NH2 (N-terminus and C-terminus assumed) [PL-23]”, the Minimal inhibitory concentration (aspergillus flavous) was greater than 64 µg/mL, the Minimal inhibitory concentration (aspergillus fumigatus) was 64 µg/mL and the Minimal inhibitory concentration (candida albicans) was 16 µg/mL. For the same compound, the Minimal inhibitory concentration (candida glabrata) was 32 µg/mL.
With “Ac-FKKLKKLFSKLWNWKK-NH2 (N-terminus and C-terminus assumed) [PL-48]” the Minimal inhibitory concentration (aspergillus flavous) was greater than 64 µg/mL, the Minimal inhibitory concentration (aspergillus fumigatus) was 32 µg/mL and the Minimal inhibitory concentration (candida tropicalis) was 8 µg/mL.
In the case of “Ac-KKLKKLFSKLWNW-NH2 (N-terminus and C-terminus assumed) [PL-30]”, the Minimal inhibitory concentration (aspergillus flavous) is reported as greater than 64 µg/mL, the Minimal inhibitory concentration (candida albicans) is reported as 16 µg/mL and the Minimal inhibitory concentration (candida glabrata) is reported as 32 µg/mL.
